Entries after “also recorded” stand apart in the source; their conditions may differ.

Data on 1 molecule can be found in US5084481A, “Method of treating inflammatory diseases with pharmaceutical composition containing dihydrolipoic acid as active substance” (Asta Pharma Aktiengesellschaft, priority 1989, dated 1992).

Data set [1] can be described thus: Acetic acid writhing pain test in mouse. The format is in vivo. The settings on record: for ED50: read-out: analgesically effective ED50, acetic acid writhing test. The source says: Acetic acid test (Writhing test) in the mouse
In the acetic acid test after KOSTER et al. (Fed. proc., Vol. 18, page 412 (1959)) the pain irritation is triggered by an intraperitoneal injection of 1% acetic acid. The pain reaction is expressed in the form of a characteristic stretching of the animals ("writhing syndrome") which continues at irregular intervals for some time after the acetic acid injection. The dose-related inhibition of the frequency of writhing movements as compared to an untreated control group is expressed as an analgesic effect in percent. Evaluation is effected by determining the ED50 (linear regression method). The ED50 is the dose in mg/kg which achieves a 50% inhibition in the writhing syndrome.
The characteristic feature of the acetic acid test is that it not only determines the effect of strong, centrally acting analgesics, but also that of predominantly peripherally acting analgesic, antipyretic and anti-inflammatory agents such as phenylbutazone, indomethacin, etc.

Data set [2] can be described thus: Randall Selitto inflammation pain test in rat. The settings on record: for ED50: 0.5 h, pain threshold 30 minutes after substance, read-out: analgesically effective ED50, Randall Selitto test. The format is in vivo. The procedure:
The following is a brief description of the pharmacological test methods specially mentioned herein: Randall Selitto Test (inflammatory pain in the rat):
On the basis of the method after RANDALL and SELITTO (L.O. Randall and J. Selitto, Arch. int. Pharmacodyn., Vol. 111, pages 409-418 (1957)) 0.1 ml of a 20% suspension of brewer's yeast (in demineralized water) is injected subplantar into the right rear paw of rats. After 21/2 hours the test substances are given and 30 minutes later the pain threshold is measured as a pressure (in grams) on the inflamed paw using an algesimeter (equipment by Ugo BASILE, Milan/Italy). The criterion is the defense reaction of the animals in pulling the paw away and/or escaping from the technician's grip. The effect of the substance is determined by the increase in the pain threshold compared to an untreated control group. The course of the experiment differs from the original method in that the substances are only administered 21/2 hours after appearance of the edema and not given simultaneously therewith. This is done in order to prevent the development of the edema being inhibited by any possible anti-inflammatory action and the analgesia being masked or feigned.
The ED50 is determined using the linear regression method. The ED50 is then the dose in mg/kg for which a 50% analgesic effect is calculated.

Data set [3] is described as follows: Carragheen-induced edema test in the rat (anti-inflammatory effect). To be noted: for ED50: read-out: anti-inflammatorally effective ED50, carragheen edema. The format is in vivo. The procedure:
Carragheen-edema test for anti-inflammatory effect
The examination is carried out in carragheen-induced edema of rat paw on the basis of the method of MoRSDORF and colleagues (Arch. int. Pharmacodyn. 192, 111-127 (1971)). The anti-inflammatory effect is for example quoted as edema inhibition in percent as compared to the untreated control group. […]. The substance is given orally or intraperitoneally […]. The ED50 is the dose in mg/kg at which there is a 50% inhibition of the paw edema.

A short description of data set [4]: PAF-acether edema in the rat. The data set is classed as in vivo. The settings on record: for % effect, PAF-acether edema: rat, given 0.5 hours before triggering, edema measured 1 hour thereafter. The procedure: (Platelet Aggregating Factor)-acether-edema in the rat
The principle of this method is to provoke a locally limited edema or inflammation in the rat paw by means of the subplantar injection of 2 μg of PAF acether per animal. The investigations were carried out on the basis of the method of SWINGLE and REITER (Agents and actions, 18, 358-365, (1986)). The animals received the test substances 0.5 hours before triggering of the edema. The edema was measured 1 hour thereafter. The ED50 was calculated using the linear regression method.

A short description of data set [5]: Acute toxicity in the mouse (LD50, Litchfield and Wilcoxon). The settings on record: in vivo, oral application. The procedure: The acute toxicity of the invention in the mouse (expressed as the LD50 mg/kg; method of LITCHFIELD and WILCOXON, J. Pharmacol. Exp. Ther. 95:99, (1949)) is for example above 200 mg/kg in the case of oral application.
Data set [6] can be described thus: Cytoprotective effect in animal trials. The settings on record: in vivo.
Data set [7] is described as follows: Comparison of the effect with alpha-lipoic acid and S-adenosyl-L-methionine (animal experiments). The data set is classed as in vivo.
A short description of data set [8]: Further investigatory models (MgSO4 writhing, adjuvans arthritis, mouse ear edema, arthrosis, intestinal ulceration, colitis, ethanol ulcer, UV-B radiation in healthy subjects). To be noted: models listed, stated collectively. The format is in vivo, rat, chicken. The source says: MgSO4 writhing test in the mouse after GYIRES et al. (Arch. int. pharmacodyn. therap. 267, 131-140, 1984)
Adjuvans arthritis in the rat after NEWBOULD (Brit. J. Pharmacol. 21, 127-136, 1963)
TPA or arachidonic acid-induced mouse ear edema after YOUNG et al. (J. Invest. Dermatol. 80, 48-52, 1983)
Na-mono-iodine acetate-induced arthrosis in rats or chickens after KALBHEN, in: Arthrosis deformans, Eular-Verlag, Basel/Switzerland, 1982
TPA-induced arthrosis in rats after WEISCHER (Agents and Actions 23, 1/2, 1988)
Intestinal ulceration in rats after DEL SOLDATO (Agents and Actions 16, 393-396, 1985)
Colitis model in the rat after WEISCHER (Agents and Actions, 1988)
Ethanol ulcer model in the rat (determination of, for example, a cytoprotective effect)
The effect of topical DL-dihydrolipoic acid in the complex of symptoms induced by UV-B radiation in healthy subjects
(An intraperitoneal irritant provokes the stretching counted in writhing tests.)

The conditions of data set [9]: rats and mice; solutions in water or physiological sodium chloride containing venom and substance; cited from earlier work.

Take `O=C(O)CCCCC(S)CCS` (racemic) [dihydrolipoic acid, 6,8-dimercapto-octanoic acid]: the “analgesic effect (in words)” value in [1] (acetic acid writhing pain test in mouse) and in data set [2] (Randall Selitto inflammation pain test in rat) was “good analgesic effect” each time. In addition, the ED50 – broadly, the midpoint of the dose-response relation – in data set [1] (ip, intraperitoneally, mouse) was 4.6 mg/kg; in [1] (po, per os, mouse) it was 26.8 mg/kg; in data set [2] (ip, intraperitoneally, rat) it was 0.14 mg/kg; in [2] (po, per os, rat), 16.2 mg/kg; in data set [3] (ip, intraperitoneally, rat), 7.7 mg/kg; in data set [3] (po, per os, rat), 26 mg/kg. The “analgesic effect superior to that of alpha-lipoic acid by a factor” value in [1] (peroral application, acetic acid writhing, mouse) was “at least 1.9”; in data set [2] (peroral application, Randall Selitto, rat), ≥ 2.8. Further, the minimal effective dose in data set [2] (po, per os, rat, read-out: minimum dose to produce an analgesic effect in the Randall Selitto pain test) turned out to be 5 mg/kg; in data set [3] (po, per os, rat, read-out: minimum dose to produce an anti-inflammatory effect in the carragheen-induced edema test) it was 5 mg/kg. The “anti-inflammatory activity (in words)” value in data set [3] (carragheen-induced edema in the rat) is recorded as “good anti-inflammatory activity”. Further, the “anti-inflammatory activity superior to that of alpha-lipoic acid by a factor” value in data set [3] (peroral application, carragheen edema, rat) is “at least 1.9”. Besides, the “% effect, PAF-acether edema” value in [4] (25 mg/kg intraperitoneally) came out at 14%; in [4] (50 mg/kg intraperitoneally) it was 63%; in data set [4] (200 mg/kg intraperitoneally), 73%. Also, the “inhibition of vasopermeability (in words)” value in [4] (PAF edema in the rat) was “good inhibition of vasopermeability”. Besides, the LD50 (commonly the dose expected to kill half of the subjects tested) in [5] is > 200 mg/kg. Moreover, the “cytoprotective effect (in words)” value in data set [6] was “good cytoprotective effect; also recorded: specific cytoprotective effect”. Also, the “time after application at which the full effect appears” value in data set [7] (animal experiments) stood at 0.5 h. In addition, the “effect stronger than that of alpha-lipoic acid by a factor” value in [7] (in vivo) is given as 2-3. Also, the “analgesic, anti-inflammatory, anti-arthrotic and cytoprotective effect in further models (in words)” value in data set [8] is “good analgesic, anti-inflammatory, anti-arthrotic and cytoprotective effect”. For the same molecule, in data set [9], the “inactivation of snake venom (in words)” value was “inactivates snake venom”.
